Results published in patent US6737383B1, “Herbicidal oxadiazolidines” (priority 1999, dated 2004).

What was measured:
morningglory = assay: Test B pre/postemergence morningglory; type: in vivo, Ipomoea hederacea; conditions: for Morningglory plant response rating: scale of 0 to 10 where 0 is no effect and 10 is complete control
Outline: (§1)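 Test chemicals in a non-phytotoxic solvent mixture with surfactant were sprayed preemergence onto planted seeds and postemergence onto plants 2 to 18 cm tall (1- to 4-leaf stage). After twelve to sixteen days in a greenhouse, injury was visually rated against untreated controls from 0 (no effect) to 10 (complete control).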

giant foxtail = assay: Test B pre/postemergence giant foxtail; type: in vivo, Setaria faberii; conditions: for Giant foxtail plant response rating: scale of 0 to 10 where 0 is no effect and 10 is complete control
Outline: as §1

duck salad = assay: Test B flood test duck salad; type: in vivo, Heteranthera limosa
Outline: (§2)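 Read-out is a visual response score from 0 (no effect) to 10 (complete control), assigned by comparison with untreated controls. Treatment was applied at the 2-leaf stage, and plants stayed in the greenhouse for twelve to sixteen days before scoring.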

smallflower flatsedge = assay: Test B flood test smallflower flatsedge; type: in vivo, Cyperus difformis
Outline: as §2

blackgrass = assay: Test B pre/postemergence blackgrass; type: in vivo, Alopecurus myosuroides; conditions: for Blackgrass plant response rating: scale of 0 to 10 where 0 is no effect and 10 is complete control
Outline: as §1

soybean = assay: Test B pre/postemergence soybean; type: in vivo, Glycine max; conditions: for Soybean plant response rating: scale of 0 to 10 where 0 is no effect and 10 is complete control
Outline: as §1

rice = assay: Test B flood test rice; type: in vivo, Oryza sativa
Outline: as §2

purple nutsedge = assay: Test B pre/postemergence purple nutsedge; type: in vivo, Cyperus rotundus; conditions: for Nutsedge plant response rating: scale of 0 to 10 where 0 is no effect and 10 is complete control
Outline: as §1

pigweed = assay: Test B pre/postemergence pigweed; type: in vivo, Amaranthus retroflexus; conditions: for Redroot pigweed plant response rating: scale of 0 to 10 where 0 is no effect and 10 is complete control
Outline: as §1

surinam grass = assay: Test B pre/postemergence surinam grass; type: in vivo, Brachiaria decumbens; conditions: for B. signalgrass plant response rating: scale of 0 to 10 where 0 is no effect and 10 is complete control
Outline: as §1

velvetleaf = assay: Test B pre/postemergence velvetleaf; type: in vivo, Abutilon theophrasti; conditions: for Velvetleaf plant response rating: scale of 0 to 10 where 0 is no effect and 10 is complete control
Outline: as §1

corn = assay: Test B pre/postemergence corn; type: in vivo, Zea mays; conditions: for Corn plant response rating: scale of 0 to 10 where 0 is no effect and 10 is complete control
Outline: as §1

wheat = assay: Test B pre/postemergence wheat; type: in vivo, Triticum aestivum; conditions: for Wheat plant response rating: scale of 0 to 10 where 0 is no effect and 10 is complete control
Outline: as §1

crabgrass = assay: Test B pre/postemergence crabgrass; type: in vivo, Digitaria sanguinalis; conditions: for Crabgrass plant response rating: scale of 0 to 10 where 0 is no effect and 10 is complete control
Outline: as §1

wild oat = assay: Test B pre/postemergence wild oat; type: in vivo, Avena fatua; conditions: for Wild oats plant response rating: scale of 0 to 10 where 0 is no effect and 10 is complete control
Outline: as §1

[1] = Postemergence, Rate 125 g/ha, scale 0 to 10, 0 is no effect, 10 is complete control
[2] = Postemergence, Rate 250 g/ha, scale 0 to 10, 0 is no effect, 10 is complete control
[3] = Preemergence, Rate 62 g/ha, scale 0 to 10 (0 no effect, 10 complete control)
[4] = Rate 500 g/ha, Postemergence, scale 0 to 10, 0 no effect, 10 complete control
[5] = Rate 62 g/ha, flood test species, Pre-emergence, visual evaluation after twelve to sixteen days
[6] = Rate 125 g/ha, under heading Pre-emergence, flood test species, visual evaluation after twelve to sixteen days
[7] = Rate 250 g/ha, Pre-emergence, flood-test species, scale 0 to 10, 0 is no effect, 10 is complete control
[8] = Rate 500 g/ha, Pre-emergence, flood test species, scale 0 to 10 (0 no effect, 10 complete control)

CC(C)N(C(=O)n1oc(=O)n(CCl)c1=O)c1ccc(F)cc1 [Compound 376]
0: Plant response rating, Morningglory (morningglory; [1]) | Plant response rating, Morningglory (morningglory; [2]) | Plant response rating, Morningglory (morningglory; [3]) | Morningglory plant response rating (0 to 10 scale) (morningglory; Preemergence, Rate 125 g/ha) | Morningglory plant response rating (morningglory; Preemergence, Rate 250 g/ha) | Morningglory plant response rating (morningglory; Preemergence, Rate 500 g/ha) | Morningglory plant response rating (morningglory; Rate 62 g/ha, Postemergence) | Plant response rating, Morningglory (morningglory; [4]) | Plant response rating, Giant foxtail (giant foxtail; [1]) | Plant response rating, Giant foxtail (giant foxtail; [2]) | Plant response rating, Giant foxtail (giant foxtail; [3]) | Giant foxtail plant response rating (0 to 10 scale) (giant foxtail; Preemergence, Rate 125 g/ha) | Giant foxtail plant response rating (giant foxtail; Preemergence, Rate 250 g/ha) | Giant foxtail plant response rating (giant foxtail; Preemergence, Rate 500 g/ha) | Giant foxtail plant response rating (giant foxtail; Rate 62 g/ha, Postemergence) | Plant response rating, Giant foxtail (giant foxtail; [4]) | Plant response rating, Ducksalad (0 to 10 scale, 0 is no effect, 10 is complete control) (duck salad; [5]) | Ducksalad plant response rating (0 to 10 scale, 0 is no effect, 10 is complete control) (duck salad; [6]) | Ducksalad plant response rating (duck salad; [7]) | Ducksalad plant response rating (duck salad; [8]) | Plant response rating, S. Flatsedge (0 to 10 scale, 0 is no effect, 10 is complete control) (smallflower flatsedge; [5]) | S. Flatsedge plant response rating (0 to 10 scale, 0 is no effect, 10 is complete control) (smallflower flatsedge; [6]) | S. Flatsedge plant response rating (smallflower flatsedge; [7]) | S. Flatsedge plant response rating (smallflower flatsedge; [8]) | Plant response rating, Blackgrass (blackgrass; [1]) | Plant response rating, Blackgrass (blackgrass; [2]) | Plant response rating, Blackgrass (blackgrass; [3]) | Blackgrass plant response rating (0 to 10 scale) (blackgrass; Preemergence, Rate 125 g/ha) | Blackgrass plant response rating (blackgrass; Preemergence, Rate 250 g/ha) | Blackgrass plant response rating (blackgrass; Preemergence, Rate 500 g/ha) | Blackgrass plant response rating (blackgrass; Rate 62 g/ha, Postemergence) | Plant response rating, Blackgrass (blackgrass; [4]) | Plant response rating, Soybean (soybean; [1]) | Plant response rating, Soybean (soybean; [2]) | Plant response rating, Soybean (soybean; [3]) | Soybean plant response rating (0 to 10 scale) (soybean; Preemergence, Rate 125 g/ha) | Soybean plant response rating (soybean; Preemergence, Rate 250 g/ha) | Soybean plant response rating (soybean; Preemergence, Rate 500 g/ha) | Soybean plant response rating (soybean; Rate 62 g/ha, Postemergence) | Plant response rating, Soybean (soybean; [4]) | Plant response rating, Rice (0 to 10 scale, 0 is no effect, 10 is complete control) (rice; [5]) | Rice plant response rating (0 to 10 scale, 0 is no effect, 10 is complete control) (rice; [6]) | Rice plant response rating (rice; [7]) | Rice plant response rating (rice; [8]) | Plant response rating, Nutsedge (purple nutsedge; [1]) | Plant response rating, Nutsedge (purple nutsedge; [2]) | Plant response rating, Nutsedge (purple nutsedge; [3]) | Nutsedge plant response rating (0 to 10 scale) (purple nutsedge; Preemergence, Rate 125 g/ha) | Nutsedge plant response rating (purple nutsedge; Preemergence, Rate 250 g/ha) | Nutsedge plant response rating (purple nutsedge; Preemergence, Rate 500 g/ha) | Nutsedge plant response rating (purple nutsedge; Rate 62 g/ha, Postemergence) | Plant response rating, Nutsedge (purple nutsedge; [4]) | Plant response rating, Redroot pigweed (pigweed; [1]) | Plant response rating, Redroot pigweed (pigweed; [2]) | Plant response rating, Redroot pigweed (pigweed; [3]) | Redroot pigweed plant response rating (0 to 10 scale) (pigweed; Preemergence, Rate 125 g/ha) | Redroot pigweed plant response rating (pigweed; Preemergence, Rate 250 g/ha) | Redroot pigweed plant response rating (pigweed; Preemergence, Rate 500 g/ha) | Redroot pigweed plant response rating (pigweed; Rate 62 g/ha, Postemergence) | Plant response rating, Redroot pigweed (pigweed; [4]) | Plant response rating, B. signalgrass (surinam grass; [1]) | Plant response rating, B. signalgrass (surinam grass; [2]) | Plant response rating, B. signalgrass (surinam grass; [3]) | B. signalgrass plant response rating (0 to 10 scale, 0 is no effect, 10 is complete control) (surinam grass; Preemergence, Rate 125 g/ha) | B. signalgrass plant response rating (surinam grass; Preemergence, Rate 250 g/ha) | B. signalgrass plant response rating (surinam grass; Preemergence, Rate 500 g/ha) | B. signalgrass plant response rating (surinam grass; Rate 62 g/ha, Postemergence) | Plant response rating, B. signalgrass (surinam grass; [4]) | Plant response rating, Velvetleaf (velvetleaf; [1]) | Plant response rating, Velvetleaf (velvetleaf; [2]) | Plant response rating, Velvetleaf (velvetleaf; [3]) | Velvetleaf plant response rating (0 to 10 scale) (velvetleaf; Preemergence, Rate 125 g/ha) | Velvetleaf plant response rating (velvetleaf; Preemergence, Rate 250 g/ha) | Velvetleaf plant response rating (velvetleaf; Preemergence, Rate 500 g/ha) | Velvetleaf plant response rating (velvetleaf; Rate 62 g/ha, Postemergence) | Plant response rating, Velvetleaf (velvetleaf; [4]) | Plant response rating, Corn (corn; [1]) | Plant response rating, Corn (corn; [2]) | Plant response rating, Corn (corn; [3]) | Corn plant response rating (0 to 10 scale) (corn; Preemergence, Rate 125 g/ha) | Corn plant response rating (corn; Preemergence, Rate 250 g/ha) | Corn plant response rating (corn; Preemergence, Rate 500 g/ha) | Corn plant response rating (corn; Rate 62 g/ha, Postemergence) | Plant response rating, Corn (corn; [4]) | Plant response rating, Wheat (wheat; [1]) | Plant response rating, Wheat (wheat; [2]) | Plant response rating, Wheat (wheat; [3]) | Wheat plant response rating (0 to 10 scale) (wheat; Preemergence, Rate 125 g/ha) | Wheat plant response rating (wheat; Preemergence, Rate 250 g/ha) | Wheat plant response rating (wheat; Preemergence, Rate 500 g/ha) | Wheat plant response rating (wheat; Rate 62 g/ha, Postemergence) | Plant response rating, Wheat (wheat; [4]) | Plant response rating, Crabgrass (crabgrass; [1]) | Plant response rating, Crabgrass (crabgrass; [2]) | Plant response rating, Crabgrass (crabgrass; [3]) | Crabgrass plant response rating (0 to 10 scale) (crabgrass; Preemergence, Rate 125 g/ha) | Crabgrass plant response rating (crabgrass; Preemergence, Rate 250 g/ha) | Crabgrass plant response rating (crabgrass; Preemergence, Rate 500 g/ha) | Crabgrass plant response rating (crabgrass; Rate 62 g/ha, Postemergence) | Plant response rating, Crabgrass (crabgrass; [4]) | Plant response rating, Wild oats (wild oat; [1]) | Plant response rating, Wild oats (wild oat; [2]) | Plant response rating, Wild oats (wild oat; [3]) | Wild oats plant response rating (0 to 10 scale) (wild oat; Preemergence, Rate 125 g/ha) | Wild oats plant response rating (wild oat; Preemergence, Rate 250 g/ha) | Wild oats plant response rating (wild oat; Preemergence, Rate 500 g/ha) | Wild oats plant response rating (wild oat; Rate 62 g/ha, Postemergence) | Plant response rating, Wild oats (wild oat; [4])
